Test results published in US5677282A (Proscript, Inc., priority 1995, dated 1997).
Several values for one entry are separate records, joined by “and”; a condition that tells them apart may be missing. Equal values may be shown once.

How the values were obtained:
Assay type in all cases: biochemical
stromelysin = stromelysin (Homo sapiens, UniProt P08254); assay: Assay of stromelysin inhibition activity (fluorogenic coumarin peptide substrate); conditions: trypsin-activated stromelysin 2 nM, H-150 buffer pH 7.4, room temperature; read-out: Ki(app)
Procedure, shortened: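 Human stromelysin trypsin-activated, then used at 2 nM in HEPES/NaCl/CaCl2 buffer pH 7.4 at room temperature with coumarin peptide substrate. Initial hydrolysis rate followed by fluorescence (ex 328/em 393 nm); inhibitor added stepwise to 30-70% inhibition, Ki derived assuming simple competitive inhibition with substrate far below Km.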

[1] = biological target: human neutrophil collagenase (Homo sapiens, UniProt P22894); assay: Assay of human neutrophil collagenase inhibition activity; conditions: human neutrophil collagenase 2 nM, H-150 buffer pH 7.4; read-out: Ki(app)
Procedure, shortened: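 Human neutrophil collagenase (2 nM) in HEPES/NaCl/CaCl2 buffer, pH 7.4, was followed by fluorescence of coumarin peptide substrate hydrolysis over about 100-200 s. Inhibitor was added stepwise until 30-70% rate reduction. Ki was calculated assuming simple competitive inhibition with substrate far below Km.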

92 kD gelatinase = 92 kD gelatinase (Homo sapiens, UniProt P14780); assay: Assay of 92 KD gelatinase inhibition activity; conditions: 92KD gelatinase 25 pM, H-150 buffer pH 7.4; read-out: Ki(app)
Procedure, shortened: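 Pro-92 kD gelatinase activated with 1 mM p-aminophenyl mercuric acetate, 24 h at 37 °C. Assay: 25 pM enzyme in H-150 buffer pH 7.4 with coumarin peptide substrate; hydrolysis rate followed by fluorescence over 100-200 s. Inhibitor titrated in until 30-70% inhibition; Ki calculated assuming simple competitive inhibition with substrate well below Km.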

human neutrophil collagenase, sequence (P22894 101-467): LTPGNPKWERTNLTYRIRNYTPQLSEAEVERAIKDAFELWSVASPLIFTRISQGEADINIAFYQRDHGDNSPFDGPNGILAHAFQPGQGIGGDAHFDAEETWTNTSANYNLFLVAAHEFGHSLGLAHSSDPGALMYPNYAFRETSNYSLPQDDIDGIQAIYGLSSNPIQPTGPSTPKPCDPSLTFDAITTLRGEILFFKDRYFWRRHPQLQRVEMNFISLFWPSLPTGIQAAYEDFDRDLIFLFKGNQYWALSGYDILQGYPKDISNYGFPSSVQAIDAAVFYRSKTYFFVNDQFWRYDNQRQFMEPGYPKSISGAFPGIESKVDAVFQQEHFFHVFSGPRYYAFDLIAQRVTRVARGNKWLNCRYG
stromelysin, sequence (P08254 100-477): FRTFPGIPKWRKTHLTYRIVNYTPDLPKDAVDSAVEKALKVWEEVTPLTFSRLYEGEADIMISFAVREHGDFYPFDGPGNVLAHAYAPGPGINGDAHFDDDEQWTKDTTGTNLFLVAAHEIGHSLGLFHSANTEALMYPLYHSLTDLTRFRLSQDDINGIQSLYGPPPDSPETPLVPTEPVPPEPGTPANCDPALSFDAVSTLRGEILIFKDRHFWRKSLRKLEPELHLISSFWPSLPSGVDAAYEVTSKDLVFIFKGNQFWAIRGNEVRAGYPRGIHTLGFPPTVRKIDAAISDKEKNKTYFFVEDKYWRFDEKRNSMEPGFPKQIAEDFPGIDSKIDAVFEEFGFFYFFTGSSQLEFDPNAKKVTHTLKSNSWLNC
92 kD gelatinase, sequence (P14780 107-707): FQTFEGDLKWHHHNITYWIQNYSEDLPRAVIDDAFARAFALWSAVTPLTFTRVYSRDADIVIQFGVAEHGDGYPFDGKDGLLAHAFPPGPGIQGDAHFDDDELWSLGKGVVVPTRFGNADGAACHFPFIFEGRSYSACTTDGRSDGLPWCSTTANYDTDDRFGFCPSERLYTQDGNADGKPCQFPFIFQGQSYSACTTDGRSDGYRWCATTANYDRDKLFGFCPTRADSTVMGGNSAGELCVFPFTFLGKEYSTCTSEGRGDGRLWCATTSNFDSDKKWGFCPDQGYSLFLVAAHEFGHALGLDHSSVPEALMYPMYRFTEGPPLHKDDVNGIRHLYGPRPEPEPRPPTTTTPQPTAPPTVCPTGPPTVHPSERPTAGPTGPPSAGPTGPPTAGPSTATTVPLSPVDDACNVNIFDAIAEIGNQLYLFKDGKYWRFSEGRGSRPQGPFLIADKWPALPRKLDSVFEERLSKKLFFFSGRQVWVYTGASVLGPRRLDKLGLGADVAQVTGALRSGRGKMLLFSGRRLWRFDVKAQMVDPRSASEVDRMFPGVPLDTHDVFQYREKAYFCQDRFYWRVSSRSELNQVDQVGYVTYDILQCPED

Row | Ki (stromelysin) | Ki (92 kD gelatinase) | SMILES | Ki [1]
1 | 169 nM | 2.3 nM | CC(C)C[C@H](NC(=O)[C@H](Cc1ccccc1)NC(=O)OCc1ccccc1)C(=O)Nc1n[nH]c(=S)s1 [5-(N-benzyloxycarbonyl-phenylalanyl-leucylamino)-1,3,4-thiadiazole-2-thione] | –
2 | 279 nM | 1.5 nM | CC(C)[C@H](NC(=O)[C@H](Cc1ccccc1)NC(=O)OCc1ccccc1)C(=O)Nc1n[nH]c(=S)s1 [5-(N-benzyloxycarbonyl-phenylalanyl-valylamino)-1,3,4-thiadiazole-2-thione] | 4.8 nM and 7.8 nM

Row | SMILES | Ki (stromelysin) | Ki (92 kD gelatinase) | Ki [1]
3 | O=C(N[C@@H](Cc1ccc(OCc2ccccc2)cc1)C(=O)N[C@H](C(=O)Nc1n[nH]c(=S)s1)c1ccccc1)OCc1ccccc1 | 39 nM and 64 nM | – | 1.57 nM
